According to ChEMBL document CHEMBL1201862, “PubChem BioAssay data set” (2004):
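In this assay, cells in 96-well plates receive the compound at five concentrations for 48 hours. Endpoints are linearly interpolated between the surrounding concentrations. Here, GI50 denotes the concentration required for 50% inhibition of growth.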 Activity calls are given as the source filed them. No stated cut-off is given here; in the data, active = GI50 up to about 1.1 µM and inactive = higher.

What was measured:
Assay in all cases: NCI tumour cell line growth inhibition, 48 h
HCT-116 = test system: HCT-116
HL-60 = test system: HL-60
HOP-92 = test system: HOP-92
LOX IMVI = test system: LOX IMVI
MDA-MB-231 = test system: MDA-MB-231
NCI-H460 = test system: NCI-H460
NCI-H522 = test system: NCI-H522
OVCAR-4 = test system: OVCAR-4
RPMI-8226 = test system: RPMI-8226
SF-268 = test system: SF-268
SK-MEL-28 = test system: SK-MEL-28
SK-MEL-2 = test system: SK-MEL-2
SN12C = test system: SN12C
SR = test system: SR
UO-31 = test system: UO-31
HOP-62 = test system: HOP-62
RXF 393 = test system: RXF 393
SNB-75 = test system: SNB-75
T47D = test system: T47D
DU-145 = test system: DU-145

SMILES	GI50 (HCT-116)	GI50 (HL-60)	GI50 (HOP-92)	GI50 (LOX IMVI)	GI50 (MDA-MB-231)	GI50 (NCI-H460)	GI50 (NCI-H522)	GI50 (OVCAR-4)	GI50 (RPMI-8226)	GI50 (SF-268)	GI50 (SK-MEL-28)	GI50 (SK-MEL-2)	GI50 (SN12C)	GI50 (SR)	GI50 (UO-31)	GI50 (HOP-62)	GI50 (RXF 393)	GI50 (SNB-75)	GI50 (T47D)	GI50 (DU-145)
CC(C)C1(Cl)CCC2C3(C)CCCC(C)(C(=O)O)C3CC(Cl)C2(Cl)C1Cl (stereo unspecified)	28.2 µM (inactive)	22.3 µM (inactive)	37.4 µM (inactive)	33.8 µM (inactive)	33.3 µM (inactive)	23.9 µM (inactive)	20 µM (inactive)	24.8 µM (inactive)	20.8 µM (inactive)	45 µM (inactive)	16.7 µM (inactive)	31.4 µM (inactive)	39.2 µM (inactive)	25.6 µM (inactive)	32.1 µM (inactive)	–	–	–	–	–
CCCCOCN/C(N)=N/C#N	> 100 µM (inactive)	> 100 µM (inactive)	> 100 µM (inactive)	21.5 µM (inactive)	–	> 100 µM (inactive)	> 100 µM (inactive)	64.1 µM (inactive)	> 100 µM (inactive)	> 100 µM (inactive)	> 100 µM (inactive)	> 100 µM (inactive)	> 100 µM (inactive)	19.6 µM (inactive)	> 100 µM (inactive)	> 100 µM (inactive)	> 100 µM (inactive)	> 100 µM (inactive)	–	–
Cc1[nH]c2ccccc2c1-c1cc(-c2cc(-c3c(C)[nH]c4ccccc34)nc(N)n2)nc(N)n1	> 100 µM (inactive)	> 100 µM (inactive)	> 100 µM (inactive)	> 100 µM (inactive)	> 100 µM (inactive)	> 100 µM (inactive)	51.8 µM (inactive)	> 100 µM (inactive)	> 100 µM (inactive)	> 100 µM (inactive)	> 100 µM (inactive)	> 100 µM (inactive)	> 100 µM (inactive)	86.3 µM (inactive)	14.9 µM (inactive)	> 100 µM (inactive)	–	–	> 100 µM (inactive)	–
Nc1nc(Cl)c(CO)c(NCC2(CO)CC(CCc3ccccc3)C2)n1 (stereo unspecified)	0.979 µM (active)	3.4 µM (inactive)	24.3 µM (inactive)	12.5 µM (inactive)	12.5 µM (inactive)	13.1 µM (inactive)	15.7 µM (inactive)	14.4 µM (inactive)	3.5 µM (inactive)	43.1 µM (inactive)	20.4 µM (inactive)	–	31.1 µM (inactive)	4.82 µM (inactive)	17.3 µM (inactive)	25.4 µM (inactive)	20.9 µM (inactive)	16.1 µM (inactive)	–	22.6 µM (inactive)
CCOC(=O)CCCNC(=O)CCCCC(=O)N(C)C	> 100 µM (inactive)	> 100 µM (inactive)	> 100 µM (inactive)	> 100 µM (inactive)	> 100 µM (inactive)	> 100 µM (inactive)	> 100 µM (inactive)	–	> 100 µM (inactive)	> 100 µM (inactive)	> 100 µM (inactive)	> 100 µM (inactive)	> 100 µM (inactive)	–	> 100 µM (inactive)	> 100 µM (inactive)	–	–	> 100 µM (inactive)	> 100 µM (inactive)
COc1ccc(CN=C(N)N)c2ccccc12	24.6 µM (inactive)	23.8 µM (inactive)	–	24.8 µM (inactive)	–	–	34.3 µM (inactive)	–	31.6 µM (inactive)	12.1 µM (inactive)	22.3 µM (inactive)	35.1 µM (inactive)	14.9 µM (inactive)	–	23.5 µM (inactive)	0.78 µM (active)	33.7 µM (inactive)	20.5 µM (inactive)	31.9 µM (inactive)	57.7 µM (inactive)
CC(=O)CC(=O)Nn1c(-c2cccs2)nc2ccc(I)cc2c1=O	> 60.1 µM (inactive)	> 66.5 µM (inactive)	> 50.1 µM (inactive)	> 46.5 µM (inactive)	–	> 56.1 µM (inactive)	> 49.5 µM (inactive)	> 100 µM (inactive)	> 57.9 µM (inactive)	> 47.3 µM (inactive)	> 100 µM (inactive)	> 56.6 µM (inactive)	> 49.8 µM (inactive)	> 100 µM (inactive)	> 46.9 µM (inactive)	> 66.4 µM (inactive)	> 68.9 µM (inactive)	43.5 µM (inactive)	> 62.1 µM (inactive)	> 38.1 µM (inactive)
O=[N+]([O-])C1Cc2ccccc2OC1c1ccccc1 (stereo unspecified)	66.4 µM (inactive)	39.4 µM (inactive)	83.2 µM (inactive)	15.3 µM (inactive)	–	–	26.6 µM (inactive)	> 100 µM (inactive)	–	36.1 µM (inactive)	86.1 µM (inactive)	–	21.7 µM (inactive)	15.3 µM (inactive)	> 100 µM (inactive)	33.5 µM (inactive)	21.8 µM (inactive)	19.9 µM (inactive)	–	–
